Measured values from paper PMC1838525 (Protein science : a publication of the Protein Society, 2006).

Target: T1, Vam7p PX domain (Saccharomyces cerevisiae, UniProt P32912)
T1 sequence (P32912 2-122): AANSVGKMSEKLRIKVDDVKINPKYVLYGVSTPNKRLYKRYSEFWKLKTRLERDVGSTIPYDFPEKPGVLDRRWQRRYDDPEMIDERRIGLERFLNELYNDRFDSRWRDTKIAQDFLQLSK
Experiment: 1H, […] HSQC NMR titration
Type: binding

Kd: 299 ± 26 µM
SMILES: CCCC(=O)OC[C@H](COP(=O)(O)O[C@@H]1[C@H](O)[C@H](OP(=O)(O)O)[C@@H](O)[C@H](O)[C@H]1O)OC(=O)CCC [C4-PtdIns(3)P]
